In ChEMBL document CHEMBL1130583, “Benzylamine-based selective and orally bioavailable inhibitors of thrombin” (Bioorg Med Chem Lett, 1998):

Assays:
Prothrombin = Prothrombin (Homo sapiens, UniProt P00734); assay: Binding affinity towards human thrombin
Rattus norvegicus = assay: In vivo antithrombotic activity was tested in rat thromboplastin-induced model of venous thrombosis at an intravenous bolus of 5 mg/Kg; type: functional
Serine protease 1 = target: T1, Serine protease 1 (Bos taurus, UniProt P00760); assay: Binding affinity towards bovine trypsin was evaluated in vitro
T1 sequence (P00760 whole entry): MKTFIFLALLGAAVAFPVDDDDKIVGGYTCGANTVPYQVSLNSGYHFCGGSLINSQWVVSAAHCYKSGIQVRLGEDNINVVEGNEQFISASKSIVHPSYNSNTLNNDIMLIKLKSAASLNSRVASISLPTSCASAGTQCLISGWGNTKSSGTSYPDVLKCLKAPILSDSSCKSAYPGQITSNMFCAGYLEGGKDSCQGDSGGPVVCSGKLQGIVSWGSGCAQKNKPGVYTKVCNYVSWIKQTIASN

[1] = Apparent permeability coefficient (Papp) was determined in human Caco-2 cell monolayer (n = 3); type: ADME, cell-based
[2] = Time taken by the compound to achieve maximum concentration in rat plasma at 30 mg/Kg upon oral administration.; type: ADME, organism-based
[3] = Maximum concentration in rat plasma at 30 mg/Kg upon oral administration.; type: ADME, organism-based; design: dose 30 mg/Kg, route oral

CN(C(=O)[C@H](Cc1ccc(CN)cc1)NS(=O)(=O)c1ccc(-c2ccccc2)cc1)C1CCCC1
Ki (Prothrombin): 60.5 nM

NCc1ccc(C[C@H](NS(=O)(=O)c2ccc3ccccc3c2)C(=O)N2CCCCC2)cc1
Ki (Prothrombin): 3.1 nM

CN(C(=O)[C@H](Cc1ccc(CN)cc1)NS(=O)(=O)c1ccc(C2CCCCC2)cc1)C1CCCC1
inhibition in vivo at 5 mg/kg (Rattus norvegicus): 23.8%
Ki (Prothrombin): 20.1 nM
Ki (Serine protease 1): 4800 nM

CN(C(=O)[C@H](Cc1ccc(CN)cc1)NS(=O)(=O)c1ccc2cc3ccccc3cc2c1)C1CCCC1
inhibition in vivo at 5 mg/kg (Rattus norvegicus): 45.4%
Ki (Prothrombin): 5.7 nM
Ki (Serine protease 1): 3300 nM

CN(C(=O)[C@H](Cc1ccc(CN)cc1)NS(=O)(=O)c1ccc2c(c1)CCCC2)C1CCCC1
inhibition in vivo at 5 mg/kg (Rattus norvegicus): 16.4%
Ki (Prothrombin): 10.1 nM
Ki (Serine protease 1): 9800 nM

CN(C(=O)[C@H](Cc1ccc(C(=N)N)cc1)NS(=O)(=O)c1ccc2ccccc2c1)C1CCCC1
Papp [1]: 0.2 ×10⁻⁶ cm/s

CN(C(=O)[C@H](Cc1ccc(CN)cc1)NS(=O)(=O)c1ccc2ccccc2c1)C1CCCC1
inhibition in vivo at 5 mg/kg (Rattus norvegicus): 17.6%
Ki (Prothrombin): 18.3 nM
Ki (Serine protease 1): 13600 nM

CN(C(=O)[C@H](Cc1ccc(CN)cc1)NS(=O)(=O)c1ccc(-c2ccccn2)s1)C1CCCC1
Ki (Prothrombin): 107 nM

COc1ccc2cc(S(=O)(=O)N[C@@H](Cc3ccc(CN)cc3)C(=O)N(C)C3CCCC3)ccc2c1
Papp [1]: 10.7 ×10⁻⁶ cm/s
Tmax [2]: 2.33 h
Cmax [3]: 2.8 µM
inhibition in vivo at 5 mg/kg (Rattus norvegicus): 44.1%
Ki (Prothrombin): 6.6 nM
Ki (Serine protease 1): 14200 nM

CN(C(=O)[C@H](Cc1ccc(CN)cc1)NS(=O)(=O)c1ccc2c(c1)CCCCC2)C1CCCC1
Tmax [2]: 1.33 h
Cmax [3]: 3.5 µM
inhibition in vivo at 5 mg/kg (Rattus norvegicus): 39.4%
Ki (Prothrombin): 3.3 nM
Ki (Serine protease 1): 6300 nM

CN(C(=O)[C@H](Cc1ccc(C(=N)NN)cc1)NS(=O)(=O)c1ccc2ccccc2c1)C1CCCC1
Papp [1]: 1.7 ×10⁻⁶ cm/s

CN(C)c1cccc2c(S(=O)(=O)N[C@@H](Cc3ccc(CN)cc3)C(=O)N(C)C3CCCC3)cccc12
Tmax [2]: 1.6 h
Cmax [3]: 3.3 µM
inhibition in vivo at 5 mg/kg (Rattus norvegicus): 35.5%
Ki (Prothrombin): 10.9 nM
Ki (Serine protease 1): 17100 nM

CCCc1ccc(S(=O)(=O)N[C@@H](Cc2ccc(CN)cc2)C(=O)N(C)C2CCCC2)cc1
Ki (Prothrombin): 9.6 nM
Ki (Serine protease 1): 9040 nM
